Tested on: IRF3 activation in THP-1 Dual Cells
Assay: IRF3 activation assay in THP-1 Dual Cells (QUANTI-Blue readout)
Type: cell-based
Settings: Homo sapiens, THP1-Dual, 24 h
Experimental: THP-1 Dual Cells (Invivogen) were maintained in RPMI1640 medium with addition of 10% FBS, 100 μg/ml zeocin, 10 μg/ml blasticidin. Cells were added in a 96-well flat bottom assay plate at 100,000 per well in 100 μL complete RPMI medium. Test compounds were prepared by serial dilution in complete RPMI medium and 100 μL test compounds were transferred to each corresponding well. The assay plate was incubated at 37° C., 5% CO2 for 24 hours. After the overnight incubation, 20 μL of the culture supernatants were collected, followed by addition of 180 μL of QUANTI-Blue (Invivogen) to assess IRF3 activity. The amount of IRF3 activation was assessed by reading the absorbance at 620-655 nm with a microplate reader 2 hours later. The culture supernatant from the untreated THP-1 cells was used as the negative control. To determine the NF-κB activation, another 20 μL of culture supernatant were transferred to a 96-well white plate, followed by addition of 50 μL of Quanti-Luc™ assay solution (Invivogen). The amount of NF-κB activation induced by the test compounds were determined by the luminescence above the untreated control. EC50 determination was performed by fitting the curve of percent control activity versus the log of the compound concentration using the GraphPad Prism 6.0 software.

| Structure (SMILES) | EC50 (Table 2, 24 hours incubation) [nM] | EC50 (Table 1, 24 hours incubation) [nM] |
| --- | --- | --- |
| CCn1nc(C)cc1C(=O)Nc1nc2cc(C(N)=O)cc(OCCCC#N)c2n1C/C=C/Cn1c2nc(-c3cc(C)nn3CC)ncc2c2cc(C(N)=O)cc(OCCCOC)c21 [Example 29, (E)-9-(4-(5-carbamoyl-7-(3-cyanopropoxy)-2-(1-ethyl-3-methyl-1H-pyrazole-5-carboxamido)-1H-benzo[d]imidazol-1-yl)but-2-en-1-yl)-2-(1-ethyl-3-methyl-1H-pyrazol-5-yl)-8-(3-methoxypropoxy)-9H-pyrimido[4,5-b]indole-6-carboxamide] | < 50 | – |
| CCn1nc(C)cc1C(=O)Nc1nc2cc(C(N)=O)cc(OCCCOC)c2n1C/C=C/Cn1c2nc(-c3cc(C)nn3CC)ncc2c2cc(C(N)=O)cc(OCCOCCOCCC(=O)O)c21 [Example 53, (E)-3-(2-(2-(6-carbamoyl-9-(4-(5-carbamoyl-2-(1-ethyl-3-methyl-1H-pyrazole-5-carboxamido)-7-(3-methoxypropoxy)-1H-benzo[d]imidazol-1-yl)but-2-enyl)-2-(1-ethyl-3-methyl-1H-pyrazol-5-yl)-9H-pyrimido[4,5-b]indol-8-yloxy)ethoxy)ethoxy)propanoic Acid] | 50 to 200 | – |
| CCn1nc(C)cc1C(=O)Nc1nc2cc(C(N)=O)cc(C)c2n1C/C=C/Cn1c2ccc(C(N)=O)cc2c2cnc(-c3ccnn3CC)nc21 [Example 7, (E)-9-(4-(5-carbamoyl-2-(1-ethyl-3-methyl-1H-pyrazole-5-carboxamido)-7-methyl-1H-benzo[d]imidazol-1-yl)but-2-enyl)-2-(1-ethyl-1H-pyrazol-5-yl)-9H-pyrimido[4,5-b]indole-6-carboxamide] | 200 to 500 | < 1000 |
| CCn1nc(C)cc1C(=O)Nc1nc2cc(C(N)=O)cc(OCCCO)c2n1C/C=C/Cn1c2ccc(C(N)=O)cc2c2cc(F)c(-c3cc(C)nn3CC)nc21 [Example 32, (E)-9-(4-(5-carbamoyl-2-(1-ethyl-3-methyl-1H-pyrazole-5-carboxamido)-7-(3-hydroxypropoxy)-1H-benzo[d]imidazol-1-yl)but-2-en-1-yl)-2-(1-ethyl-3-methyl-1H-pyrazol-5-yl)-3-fluoro-9H-pyrido[2,3-b]indole-6-carboxamide] | < 50 | – |
| CCn1nc(C)cc1C(=O)Nc1nc2cc(C(N)=O)cc(OC)c2n1C/C=C/Cn1c2nc(-c3cc(C)nn3CC)ncc2c2cc(C(N)=O)cc(OCCC3CCN(CCCC(=O)O)CC3)c21 [Example 55, (E)-4-(4-(2-(6-carbamoyl-9-(4-(5-carbamoyl-2-(1-ethyl-3-methyl-1H-pyrazole-5-carboxamido)-7-methoxy-1H-benzo[d]imidazol-1-yl)but-2-enyl)-2-(1-ethyl-3-methyl-1H-pyrazol-5-yl)-9H-pyrimido[4,5-b]indol-8-yloxy)ethyl)piperidin-1-yl)butanoic Acid] | 50 to 200 | – |
| CCn1nc(C)cc1C(=O)Nc1nc2cc(C(N)=O)cc(OCCN3CCOCC3)c2n1C/C=C/Cn1c2nc(-c3cc(C)nn3CC)ncc2c2cc(C(N)=O)cc(OCCCOC)c21 [Example 38, (E)-9-(4-(5-carbamoyl-2-(1-ethyl-3-methyl-1H-pyrazole-5-carboxamido)-7-(2-morpholinoethoxy)-1H-benzo[d]imidazol-1-yl)but-2-en-1-yl)-2-(1-ethyl-3-methyl-1H-pyrazol-5-yl)-8-(3-methoxypropoxy)-9H-pyrimido[4,5-b]indole-6-carboxamide] | 50 to 200 | – |
| CCn1nc(C)cc1C(=O)Nc1nc2cc(C(N)=O)cc(OCCCNC(=O)NCC(=O)O)c2n1C/C=C/Cn1c2nc(-c3cc(C)nn3CC)ncc2c2cc(C(N)=O)cc(OCCCOC)c21 [Example 41, (E)-((3-((5-carbamoyl-1-(4-(6-carbamoyl-2-(1-ethyl-3-methyl-1H-pyrazol-5-yl)-8-(3-methoxypropoxy)-9H-pyrimido[4,5-b]indol-9-yl)but-2-en-1-yl)-2-(1-ethyl-3-methyl-1H-pyrazole-5-carboxamido)-1H-benzo[d]imidazol-7-yl)oxy)propyl)carbamoyl)glycine] | < 50 | – |
| CCn1nc(C)cc1C(=O)Nc1nc2cc(C(N)=O)cc(OC)c2n1C/C=C/Cn1c2ccc(C(N)=O)cc2c2cnc(-c3cc(C)nn3CC)nc21 [Example 4, (E)-9-(4-(5-carbamoyl-2-(1-ethyl-3-methyl-1H-pyrazole-5-carboxamido)-7-methoxy-1H-benzo[d]imidazol-1-yl)but-2-enyl)-2-(1-ethyl-3-methyl-1H-pyrazol-5-yl)-9H-pyrimido[4,5-b]indole-6-carboxamide] | 500 to 1000 | < 1000 |
| CCn1nc(C)cc1C(=O)Nc1nc2cc(C(N)=O)cc(OCCCO)c2n1C/C=C/Cn1c2nc(-c3cc(C)nn3CC)ncc2c2cc(C(N)=O)cc(OCCCOC)c21 [Example 22, (E)-9-(4-(5-carbamoyl-2-(1-ethyl-3-methyl-1H-pyrazole-5-carboxamido)-7-(3-hydroxypropoxy)-1H-benzo[d]imidazol-1-yl)but-2-en-1-yl)-2-(1-ethyl-3-methyl-1H-pyrazol-5-yl)-8-(3-methoxypropoxy)-9H-pyrimido[4,5-b]indole-6-carboxamide] | < 50 | < 200 |
| CCn1nc(C)cc1C(=O)Nc1nc2cc(C(N)=O)cc(C)c2n1C/C=C/Cn1c2ccc(C(N)=O)cc2c2cc(F)c(-c3cc(C)nn3CC)nc21 [Example 24, (E)-9-(4-(5-carbamoyl-2-(1-ethyl-3-methyl-1H-pyrazole-5-carboxamido)-7-methyl-1H-benzo[d]imidazol-1-yl)but-2-en-1-yl)-2-(1-ethyl-3-methyl-1H-pyrazol-5-yl)-3-fluoro-9H-pyrido[2,3-b]indole-6-carboxamide] | < 50 | < 200 |
| CCn1nc(C)cc1C(=O)Nc1nc2cc(C(N)=O)cc(OCCCN3CCOCC3)c2n1C/C=C/Cn1c2nc(-c3cc(C)nn3CC)ncc2c2cc(C(N)=O)cc(OCCCOC)c21 [Example 27, (E)-9-(4-(5-carbamoyl-2-(1-ethyl-3-methyl-1H-pyrazole-5-carboxamido)-7-(3-morpholinopropoxy)-1H-benzo[d]imidazol-1-yl)but-2-en-1-yl)-2-(1-ethyl-3-methyl-1H-pyrazol-5-yl)-8-(3-methoxypropoxy)-9H-pyrimido[4,5-b]indole-6-carboxamide] | < 50 | < 200 |
| CCn1nc(C)cc1C(=O)Nc1nc2cc(C(N)=O)cc(OCCCOC(=O)c3cc(C)nn3CC)c2n1C/C=C/Cn1c2nc(-c3cc(C)nn3CC)ncc2c2cc(C(N)=O)cc(OC)c21 [Example 15, (E)-3-((5-carbamoyl-1-(4-(6-carbamoyl-2-(1-ethyl-3-methyl-1H-pyrazol-5-yl)-8-methoxy-9H-pyrimido[4,5-b]indol-9-yl)but-2-en-1-yl)-2-(1-ethyl-3-methyl-1H-pyrazole-5-carboxamido)-1H-benzo[d]imidazol-7-yl)oxy)propyl 1-ethyl-3-methyl-1H-pyrazole-5-carboxylate] | < 50 | < 200 |
| CCn1nc(C)cc1C(=O)Nc1nc2cc(C(N)=O)cc(OCCO)c2n1C/C=C/Cn1c2nc(-c3cc(C)nn3CC)ncc2c2cc(C(N)=O)cc(OCCCOC)c21 [Example 36, (E)-9-(4-(5-carbamoyl-2-(1-ethyl-3-methyl-1H-pyrazole-5-carboxamido)-7-(2-hydroxyethoxy)-1H-benzo[d]imidazol-1-yl)but-2-en-1-yl)-2-(1-ethyl-3-methyl-1H-pyrazol-5-yl)-8-(3-methoxypropoxy)-9H-pyrimido[4,5-b]indole-6-carboxamide] | < 50 | – |
| CCn1nc(C)cc1C(=O)Nc1nc2cc(C(N)=O)cc(OCCCNC(=O)OCC(=O)O)c2n1C/C=C/Cn1c2nc(-c3cc(C)nn3CC)ncc2c2cc(C(N)=O)cc(OCCCOC)c21 [Example 40, (E)-2-(((3-((5-carbamoyl-1-(4-(6-carbamoyl-2-(1-ethyl-3-methyl-1H-pyrazol-5-yl)-8-(3-methoxypropoxy)-9H-pyrimido[4,5-b]indol-9-yl)but-2-en-1-yl)-2-(1-ethyl-3-methyl-1H-pyrazole-5-carboxamido)-1H-benzo[d]imidazol-7-yl)oxy)propyl)carbamoyl)oxy)acetic Acid] | < 50 | – |
| CCn1nc(C)cc1C(=O)Nc1nc2cc(C(N)=O)cc(C)c2n1C/C=C/Cn1c2nc(-c3cc(C)nn3CC)ncc2c2cc(C(N)=O)cc(OC)c21 [Example 10, (E)-9-(4-(5-carbamoyl-2-(1-ethyl-3-methyl-1H-pyrazole-5-carboxamido)-7-methyl-1H-benzo[d]imidazol-1-yl)but-2-enyl)-2-(1-ethyl-3-methyl-1H-pyrazol-5-yl)-8-methoxy-9H-pyrimido[4,5-b]indole-6-carboxamide] | < 50 | < 200 |
| CCn1nc(C)cc1C(=O)Nc1nc2cc(C(N)=O)cc(OCCCOC)c2n1C/C=C/Cn1c2nc(-c3cc(C)nn3CC)ncc2c2cc(C(N)=O)cc(OCCOCCOCCOCCC(=O)O)c21 [Example 54, (E)-3-(2-(2-(2-(6-carbamoyl-9-(4-(5-carbamoyl-2-(1-ethyl-3-methyl-1H-pyrazole-5-carboxamido)-7-(3-methoxypropoxy)-1H-benzo[d]imidazol-1-yl)but-2-enyl)-2-(1-ethyl-3-methyl-1H-pyrazol-5-yl)-9H-pyrimido[4,5-b]indol-8-yloxy)ethoxy)ethoxy)ethoxy)propanoic Acid] | 50 to 200 | – |
